Experimental data taken from article PMC11869522, “Competitive displacement of lipoprotein lipase from heparan sulfate is orchestrated by a disordered acidic cluster in GPIHBP1” (Journal of Lipid Research, 2025).

Key:
bLPL = experiment: Lipase activity assay, protection against spontaneous LPL inactivation; format: biochemical, bovine; conditions: 15 nM bLPL preincubated 20 min at 22°C with 1 μM synthetic peptide; Intralipid substrate, NEFA release 25 min; triplicates
Procedure: To determine lipase activity, 90 μl incubation mixture containing 166 mM NaCl, 28 U/ml heparin, 10% (w/v) fatty acid-free serum albumin, 250 mM Tris-HCl (pH 8.5), 0.16% intralipid, and 6% (v/v) chicken serum was mixed with 60 μl of sample buffer consisting of 150 mM NaCl, 0.1% (w/v) fatty acid-free serum albumin, 0.01% (v/v) Triton X-100, 10 mM HEPES (pH 7.4) and 15 nM bLPL. After 25 min incubation, non-esterified fatty acids (NEFA) released by LPL were quantified using the NEFA-HR kit according to manufacturer protocol (Wako Chemicals).
To address this question, we preincubated 15 nM purified bLPL for 20 min in the presence of 1 μM of synthetic peptides with different chain lengths and covering distinct regions of the first 33 residues in GPIHBP1 (supplemental Table S1). The residual bLPL activity was subsequently assessed by quantifying the release of non-esterified free fatty acids after a 25-min incubation with a lipid substrate emulsion (Intralipid) using the NEFA2-kit. […]
Fig. 2 LPL activity after incubation with synthetic peptides covering the acidic tail of GPIHBP^1–33 Purified bLPL (15 nM) was preincubated either alone or in the presence of 1 μM synthetic peptides or 150 nM GPIHBP1 for 20 min in 10 mM HEPES, 150 mM NaCl pH 7.4 at 22°C before LPL activity was assessed using Intralipid® as substrate. […]

[1] = tested on: hLPL bound to immobilized heparan sulfate; experiment: GPIHBP1-mediated extraction of LPL from HSPGs (SPR, immobilized heparin dp4 fragments); format: binding, human; conditions: 12.5–200 nM GPIHBP1 proteins, 0.1–1.6 μM sulfated GPIHBP1^1–33, or GPIHBP1^34–131 with 1 μM sulfated GPIHBP1^1–33
Description: To mimic electrostatic conditions found in the sub-endothelial spaces where surface-bound heparan-sulfate proteoglycans (HSPGs) are abundant, we designed a surrogate sensor surface using a streptavidin-coated CM5 sensor chip to capture high densities of biotinylated synthetic heparin dp4 fragments ([28], [29]). The reference surface was loaded with a neutral and non-sulfated fragment (M09 S00 from Iduron), while the active surface was loaded with a negatively charged fragment (M09 S08a from Iduron) containing N- and O-6-linked sulfations on each of the […] glucosamine residues in the DP4 fragment. Only the highly sulfated oligosaccharide bound LPL, and those interactions were transient with high off-rates. Despite the very transient nature of this binding, we created a stable reservoir of hLPL on the sensor surface by combining the fast kinetics of polyelectrolyte interactions with severe mass transport limitation—the latter phenomenon impedes LPL escape from the surface due to the fast rebinding that is favored by the high densities of immobilized heparin fragments (300 fmol/mm^2). For each experiment, 12.5 nM hLPL was loaded for 100 s at a flow rate of 20 μl/min in 10 mM Hepes (pH 7.4), 150 mM NaCl, 4 mM CaCl2, 10% (vol/vol) glycerol, 0.05% (vol/vol) surfactant P20, 1 mg/ml defatted BSA, […], and 0.05% (wt/vol) NaN3.
To compare the ability of GPIHBP1^1–131 and its charge variants to bind and extract hLPL from this dynamic reservoir, we injected twofold serial dilutions of 1.25–200 nM GPIHBP1^1–131; 1.25–200 nM GPIHBP1^Cluster1-neutral; GPIHBP1^Cluster2-neutral; 1.25–200 nM GPIHBP1^34–131; 0.1–1.6 μM GPIHBP1^1–33 with Tyr^18–SO4; or 1.25–200 nM GPIHBP1^34–131 in the presence of 1 μM sulfated GPIHBP1^1–33 for 250 s at 20 μl/min in 10 mM Hepes (pH 7.4), 150 mM NaCl, 4 mM CaCl2, 10% (vol/vol) glycerol, 0.05% (vol/vol) surfactant P20, 0.2 mg/ml fatty acid-free BSA, and 0.05% (wt/vol) NaN3. At the end of each cycle, two consecutive injections of 10 μl 3 M guanidinium chloride regenerated the chip.
GPIHBP1’s ability to displace LPL from its HSPG-bound state in the sub-endothelial spaces is essential for the trans-endothelial trafficking of LPL to the luminal surface of capillary cells ([29]). The importance of the acidic tail in this process is supported by solid evidence from surrogate in vitro models and in vivo studies in gene-edited mice ([28], [29]). It was therefore important to determine the relative impact of the two charge-clusters in GPIHBP1 on their ability to disrupt LPL•HSPG interactions. To gain this insight, we measured the ability of different GPIHBP1 charge variants to displace hLPL from a SPR sensor chip surface coupled with a high density of immobilized small heparin-like fragments ([28]). […]

“GPIHBP1^1–33: Synthetic peptide representing the N-terminal acidic tail of GPIHBP1, first 33 residues (QTQQEEEEEDEDHGPDDYDEEDEDEVEEEETNR; UniProt Q8IV16 21-53, looked up, fragment)” was tested. Which “preserving bLPL activity against spontaneous inactivation” value (bLPL) did it give?
The value was “as efficient as 150 nM GPIHBP1^1–131”.

What about the “competitive displacement of HSPG-bound hLPL (in words)” value [1] of the same substance?
Its value is “neither GPIHBP1^34–131 nor GPIHBP1^1–33 alone, or in combination, induced any detachment of LPL”.
